PMC7802075 (ACS Infectious Diseases, 2020)
Where two headings read alike, the source gives them in different places.

Target: T1, LmjIPCS (inositol phosphorylceramide synthase from L. major) (Leishmania major, UniProt E9AFX2)
T1 sequence (E9AFX2 1-338): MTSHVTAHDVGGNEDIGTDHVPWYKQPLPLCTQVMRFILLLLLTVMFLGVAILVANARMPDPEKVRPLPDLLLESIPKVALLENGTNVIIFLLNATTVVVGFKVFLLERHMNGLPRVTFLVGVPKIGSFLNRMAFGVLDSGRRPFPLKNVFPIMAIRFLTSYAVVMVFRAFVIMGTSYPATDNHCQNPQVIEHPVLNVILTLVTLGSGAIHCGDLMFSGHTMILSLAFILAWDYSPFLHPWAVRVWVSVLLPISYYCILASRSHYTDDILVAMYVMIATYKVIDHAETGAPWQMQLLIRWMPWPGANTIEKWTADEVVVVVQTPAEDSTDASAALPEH
Assay: biochemical
Assay type: biochemical
Parameters: inhibition: dose or concentration left out as unconfirmed
Conditions: for inhibition: read-out: inhibition LmjIPCS; for inhibition at 20000 µM: read-out: 20mM inhibition LmjIPCS

[1] = NINDS set screen, single concentration printed as 20mM

Structure (SMILES): COC(=O)[C@]1(C)CC[C@]2(C)CC[C@]3(C)C4=CC=C5C(=CC(=O)C(O)=C5C)[C@]4(C)CC[C@@]3(C)[C@@H]2C1 [PRISTIMERIN]
- 20mM inhibition LmjIPCS: 62%

Structure (SMILES): Cn1c(=O)[nH]c2ncn(C)c2c1=O [PARAXANTHINE]
- inhibition (NINDS set screen): -5.66%

Structure (SMILES): C#CCCCCCCCCCCCC(=O)CC(O)COC(C)=O (centres unmarked) [AVOCADYNONE ACETATE]
- 20mM inhibition LmjIPCS [1]: 67%

Structure (SMILES): O=C1C=CC(=O)c2c(O)cccc21 [JUGLONE]
- 20mM inhibition LmjIPCS: 48%

Structure (SMILES): CC[C@@H](C(=O)[C@@H](C)[C@@H](O)[C@H](C)CCc1ccc(C)c(O)c1C(=O)[O-])[C@H]1O[C@](CC)([C@H]2CC[C@](O)(CC)[C@H](C)O2)C[C@@H]1C.[Na+] [LASALOCID SODIUM]
- 20mM inhibition LmjIPCS [1]: 41%

Structure (SMILES): CCn1nc(C(=O)O)c(=O)c2cc3c(cc21)OCO3 [CINOXACIN]
- 20mM inhibition LmjIPCS: 53%

Structure (SMILES): CC1=C(C(=O)O)N2C(=O)[C@@H](NC(=O)[C@H](N)C3=CCC=CC3)[C@H]2SC1 [CEPHRADINE]
- 20mM inhibition LmjIPCS: 40%

Structure (SMILES): O=C(NCO)c1cccnc1 [N-HYDROXYMETHYLNICOTINAMIDE]
- inhibition (NINDS set screen): 12%

Structure (SMILES): Cc1ccc(S(=O)(=O)NC(=O)NN2CCCCCC2)cc1 [TOLAZAMIDE]
- inhibition at 20000 µM: -5%

Structure (SMILES): C[C@H]1COc2c(N3CCN(C)CC3)c(F)cc3c(=O)c(C(=O)O)cn1c23 [LEVOFLOXACIN]
- inhibition: 11%

Structure (SMILES): Cn1c(=O)c2c(ncn2CC(O)CO)n(C)c1=O (centres unmarked) [DYPHYLLINE]
- inhibition (NINDS set screen): -5.31%

Structure (SMILES): O=C(COc1ccc(Cl)cc1)N1CCN(Cc2ccc3c(c2)OCO3)CC1 [FIPEXIDE]
- inhibition (screening of NINDS set, sheet Screen 1): 2.64%

Structure (SMILES): NCCCCCCNS(=O)(=O)c1cccc2c(Cl)cccc12
- 20mM inhibition LmjIPCS: 59%

Structure (SMILES): COc1ccc2c3c([nH]c2c1)C(C)=NCC3 [HARMALINE]
- 20mM inhibition LmjIPCS: 54%

Structure (SMILES): CNC(=O)Oc1ccc2c(c1)[C@]1(C)CCN(C)[C@@H]1N2C [ESERINE]
- 20mM inhibition LmjIPCS: 9%

Structure (SMILES): N#Cc1ccc2c(c1)N(CCCN1CCC(O)CC1)c1ccccc1S2 [PERICIAZINE]
- 20mM inhibition LmjIPCS [1]: 52%

Structure (SMILES): CCOC(=O)C1=C(O)C(=O)N(Cc2ccccc2)C1
- 20mM inhibition LmjIPCS: -1.71%

Structure (SMILES): NC(=O)N/N=C/c1ccc([N+](=O)[O-])o1 [NITROFURAZONE]
- inhibition at 20000 µM: 14%

Structure (SMILES): Nc1ccc(/N=N/c2ccccc2)c(N)n1 [PHENAZOPYRIDINE]
- 20mM inhibition LmjIPCS [1]: 52%

Structure (SMILES): O=C1C=CC(=C(c2ccc(O)cc2)c2ccc(O)cc2)C=C1 [ROSOLIC ACID]
- inhibition at 20000 µM: -11%

Structure (SMILES): C[C@@H]1O[C@@H](O[C@H]2C[C@@H](O)[C@]3(CO)[C@H]4[C@H](O)C[C@]5(C)[C@@H](C6=CC(=O)OC6)CC[C@]5(O)[C@@H]4CC[C@]3(O)C2)[C@H](O)[C@H](O)[C@H]1O [OUABAIN]
- inhibition at 20000 µM: 1.15%

Structure (SMILES): Cc1cccc(Nc2ccncc2S(=O)(=O)NC(=O)NC(C)C)c1 [TORSEMIDE]
- inhibition at 20000 µM: 29%

Structure (SMILES): O=C1C=C2C(=CCOC2O)O1 (centres unmarked) [PATULIN]
- inhibition at 20000 µM: 0.294%

Structure (SMILES): CC(C)=CCC[C@]1(C)C=Cc2c(O)c3c(c(CC=C(C)C)c2O1)O[C@]12C(=C[C@@H]4C[C@H]1C(C)(C)O[C@@]2(C/C=C(/C)C(=O)O)C4=O)C3=O [GAMBOGIC ACID]
- 20mM inhibition LmjIPCS: 58%

Structure (SMILES): O=C1c2c(O)ccc(O)c2C(=O)c2c(NCCNCCO)ccc(NCCNCCO)c21 [MITOXANTHRONE]
- 20mM inhibition LmjIPCS [1]: 63%

Structure (SMILES): CC(C)=CCC1=C(O)C(=O)c2ccccc2C1=O [LAPACHOL]
- inhibition at 20000 µM: 5.55%

Structure (SMILES): COc1cc2c(cc1OC)[C@@H]1Cc3ccc(OC)c(OC)c3CN1CC2 [TETRAHYDROPALMATINE]
- inhibition: 29%

Structure (SMILES): COc1ccc2c(c1)[C@]13CCCC[C@@H]1[C@H](C2)N(C)CC3 [DEXTROMETHORPHAN]
- 20mM inhibition LmjIPCS: 64%

Structure (SMILES): CC[C@H]1OC(=O)[C@H](C)C(=O)[C@H](C)[C@@H](O[C@@H]2O[C@H](C)C[C@H](N(C)C)[C@H]2O)[C@](C)(OC)C[C@@H](C)C(=O)[C@H](C)[C@H]2N(CCCCn3cnc(-c4cccnc4)c3)C(=O)O[C@]12C [TELITHROMYCIN]
- inhibition at 20000 µM: 3.66%

Structure (SMILES): CC1COc2c(N3CCN(C)CC3)c(F)cc3c(=O)c(C(=O)O)cn1c23 (centres unmarked) [OFLOXACIN]
- inhibition: 5%

Structure (SMILES): Cc1cc(C(C)(C)C)cc(C)c1CC1=NCCN1 [XYLOMETAZOLINE]
- 20mM inhibition LmjIPCS [1]: 62%

Structure (SMILES): CCN(CC)C(=S)SSC(=S)N(CC)CC
- inhibition at 20000 µM: 16%
